Experimental data published in ChEMBL document CHEMBL1201862, “PubChem BioAssay data set” (2004).
Where “and” joins values, the source holds several entries; their conditions need not be identical. Equal entries are not always repeated.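 The compound was tested at five concentrations on cells cultured in 96-well plates, with a 48-hour exposure period. Here, GI50 denotes the concentration required for 50% inhibition of growth.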 Calls of active or inactive are those of the source. No stated cut-off is given here; in the data, active = GI50 up to about 1.1 µM and inactive = higher.

Assays:
Experiment in all cases: NCI-60 cell line screen, 48 h
SNB-75 = tested on: SNB-75
IGROV-1 = tested on: IGROV-1
MDA-MB-231 = tested on: MDA-MB-231
MDA-N = tested on: MDA-N
UACC-257 = tested on: UACC-257
UO-31 = tested on: UO-31
KM12 = tested on: KM12
OVCAR-5 = tested on: OVCAR-5
BT-549 = tested on: BT-549
SW-620 = tested on: SW-620
OVCAR-3 = tested on: OVCAR-3
T47D = tested on: T47D
COLO 205 = tested on: COLO 205
OVCAR-4 = tested on: OVCAR-4
HOP-92 = tested on: HOP-92
MDA-MB-435 = tested on: MDA-MB-435
M14 = tested on: M14
NCI-H522 = tested on: NCI-H522
PC-3 = tested on: PC-3
SK-MEL-28 = tested on: SK-MEL-28
CCRF-CEM = tested on: CCRF-CEM
NCI-H23 = tested on: NCI-H23
HCT-15 = tested on: HCT-15
CAKI-1 = tested on: CAKI-1
HT-29 = tested on: HT-29
Hs-578T = tested on: Hs-578T
HCT-116 = tested on: HCT-116
SNB-19 = tested on: SNB-19
EKVX = tested on: EKVX
SK-MEL-2 = tested on: SK-MEL-2
ACHN = tested on: ACHN
LOX IMVI = tested on: LOX IMVI
HCC 2998 = tested on: HCC 2998
Malme-3M = tested on: Malme-3M
TK-10 = tested on: TK-10
A549 = tested on: A549
NCI/ADR-RES = tested on: NCI/ADR-RES
UACC-62 = tested on: UACC-62
SF-295 = tested on: SF-295
SN12C = tested on: SN12C
HL-60 = tested on: HL-60
MCF7 = tested on: MCF7
OVCAR-8 = tested on: OVCAR-8
NCI-H226 = tested on: NCI-H226
SF-539 = tested on: SF-539
U-251 = tested on: U-251
MOLT-4 = tested on: MOLT-4
DU-145 = tested on: DU-145
RPMI-8226 = tested on: RPMI-8226
786-0 = tested on: 786-0
NCI-H460 = tested on: NCI-H460
K562 = tested on: K562
RXF 393 = tested on: RXF 393
HOP-62 = tested on: HOP-62
A498 = tested on: A498
SR = tested on: SR
SK-OV-3 = tested on: SK-OV-3
SK-MEL-5 = tested on: SK-MEL-5
SF-268 = tested on: SF-268

Cc1nc2c(Br)cc(Br)cc2c(=O)n1-c1ccccc1NC1OCC(O)C(O)C1O (stereo unspecified)
GI50 (SNB-75): 18.8 µM (inactive) and 33 µM (inactive) | GI50 (IGROV-1): 41.4 µM (inactive) and 21.2 µM (inactive) | GI50 (MDA-MB-231): 27.2 µM (inactive) and 45.7 µM (inactive) | GI50 (MDA-N): 33.7 µM (inactive) and 41.4 µM (inactive) | GI50 (UACC-257): 23.7 µM (inactive) and 44.8 µM (inactive) | GI50 (UO-31): 42.2 µM (inactive) and 30.5 µM (inactive) | GI50 (KM12): 24.7 µM (inactive) | GI50 (OVCAR-5): 44.2 µM (inactive) and 42.7 µM (inactive) | GI50 (BT-549): 26.5 µM (inactive) and 29.3 µM (inactive) | GI50 (SW-620): 28.6 µM (inactive) | GI50 (OVCAR-3): 24.3 µM (inactive) and 20.9 µM (inactive) | GI50 (T47D): 44 µM (inactive) and 30.5 µM (inactive) | GI50 (COLO 205): 18.6 µM (inactive) and 17.6 µM (inactive) | GI50 (OVCAR-4): 24.1 µM (inactive) and 39.1 µM (inactive) | GI50 (HOP-92): 19.6 µM (inactive) and 35.8 µM (inactive) | GI50 (MDA-MB-435): 42.1 µM (inactive) and 39.4 µM (inactive) | GI50 (M14): 21.8 µM (inactive) and 32.7 µM (inactive) | GI50 (NCI-H522): 19.7 µM (inactive) and 17.4 µM (inactive) | GI50 (PC-3): 33.3 µM (inactive) and 46 µM (inactive) | GI50 (SK-MEL-28): 69.2 µM (inactive) and 74.3 µM (inactive) | GI50 (CCRF-CEM): 21.5 µM (inactive) and 11.5 µM (inactive) | GI50 (NCI-H23): 20.7 µM (inactive) and 38 µM (inactive) | GI50 (HCT-15): 48.8 µM and 41.1 µM | GI50 (CAKI-1): 45.2 µM (inactive) and 28.4 µM (inactive) | GI50 (HT-29): 24.9 µM (inactive) and 15.3 µM (inactive) | GI50 (Hs-578T): > 25.5 µM (inactive) and 39.7 µM (inactive) | GI50 (HCT-116): 24.7 µM (inactive) and 16 µM (inactive) | GI50 (SNB-19): 40.8 µM (inactive) and 22.9 µM (inactive) | GI50 (EKVX): 48.6 µM (inactive) and 39 µM (inactive) | GI50 (SK-MEL-2): 38.8 µM (inactive) and 34.3 µM (inactive) | GI50 (ACHN): 17.2 µM (inactive) and 32.3 µM (inactive) | GI50 (LOX IMVI): 14.6 µM (inactive) and 21.6 µM (inactive) | GI50 (HCC 2998): 33.7 µM (inactive) | GI50 (Malme-3M): 28.3 µM (inactive) and 37.8 µM (inactive) | GI50 (TK-10): 23.4 µM (inactive) and 40.9 µM (inactive)

COC(=O)CNCC1OC2OC(C)(C)OC2C1N=[N+]=[N-] (stereo unspecified)
GI50 (SNB-75): > 100 µM (inactive) | GI50 (IGROV-1): > 100 µM (inactive) | GI50 (A549): > 100 µM (inactive) | GI50 (MDA-N): > 100 µM (inactive) | GI50 (UACC-257): > 100 µM (inactive) | GI50 (UO-31): > 100 µM (inactive) | GI50 (KM12): > 100 µM (inactive) | GI50 (NCI/ADR-RES): > 100 µM (inactive) | GI50 (UACC-62): > 100 µM (inactive) | GI50 (OVCAR-5): > 100 µM (inactive) | GI50 (SF-295): > 100 µM (inactive) | GI50 (SN12C): > 100 µM (inactive) | GI50 (HL-60): > 100 µM (inactive) | GI50 (BT-549): > 100 µM (inactive) | GI50 (SW-620): > 100 µM (inactive) | GI50 (OVCAR-3): > 100 µM (inactive) | GI50 (T47D): > 100 µM (inactive) | GI50 (COLO 205): > 10 µM (inactive) | GI50 (OVCAR-4): > 100 µM (inactive) | GI50 (MCF7): > 100 µM (inactive) | GI50 (HOP-92): > 100 µM (inactive) | GI50 (MDA-MB-435): > 100 µM (inactive) | GI50 (PC-3): > 100 µM (inactive) | GI50 (OVCAR-8): > 100 µM (inactive) | GI50 (NCI-H226): > 100 µM (inactive) | GI50 (SF-539): > 100 µM (inactive) | GI50 (SK-MEL-28): > 100 µM (inactive) | GI50 (CCRF-CEM): > 100 µM (inactive) | GI50 (U-251): > 100 µM (inactive) | GI50 (HCT-15): > 100 µM | GI50 (CAKI-1): > 100 µM (inactive) | GI50 (MOLT-4): > 100 µM (inactive) | GI50 (DU-145): > 100 µM (inactive) | GI50 (RPMI-8226): > 100 µM (inactive) | GI50 (HT-29): > 100 µM (inactive) | GI50 (Hs-578T): > 100 µM (inactive) | GI50 (786-0): > 100 µM (inactive) | GI50 (NCI-H460): > 100 µM (inactive) | GI50 (HCT-116): > 100 µM (inactive) | GI50 (K562): > 100 µM (inactive) | GI50 (RXF 393): > 100 µM (inactive) | GI50 (SNB-19): > 100 µM (inactive) | GI50 (EKVX): > 100 µM (inactive) | GI50 (SK-MEL-2): > 100 µM (inactive) | GI50 (ACHN): > 100 µM (inactive) | GI50 (HOP-62): > 100 µM (inactive) | GI50 (LOX IMVI): > 100 µM (inactive) | GI50 (A498): > 100 µM (inactive) | GI50 (SR): > 100 µM (inactive) | GI50 (SK-OV-3): > 100 µM (inactive) | GI50 (SK-MEL-5): > 100 µM (inactive) | GI50 (TK-10): > 100 µM (inactive)

COc1ccc(/C=C/C(=O)OC2CC34CCNC35CC(OC5(OC)C2OC)c2ccc(OC)c(O)c24)cc1O (stereo unspecified)
GI50 (IGROV-1): > 100 µM (inactive) and 86.3 µM (inactive) | GI50 (A549): > 100 µM (inactive) | GI50 (MDA-N): > 100 µM (inactive) | GI50 (UACC-257): > 100 µM (inactive) | GI50 (UO-31): > 100 µM (inactive) | GI50 (NCI/ADR-RES): 63 µM (inactive) | GI50 (UACC-62): > 100 µM (inactive) | GI50 (SF-268): > 100 µM (inactive) | GI50 (OVCAR-5): > 100 µM (inactive) | GI50 (SF-295): > 100 µM (inactive) and 62.4 µM (inactive) | GI50 (SN12C): 55.1 µM (inactive) | GI50 (HL-60): 24.1 µM (inactive) | GI50 (BT-549): > 100 µM (inactive) | GI50 (SW-620): 58.1 µM (inactive) | GI50 (T47D): > 100 µM (inactive) | GI50 (OVCAR-4): > 100 µM (inactive) and 50.6 µM (inactive) | GI50 (MCF7): > 100 µM (inactive) and 70 µM (inactive) | GI50 (HOP-92): 76 µM (inactive) | GI50 (MDA-MB-435): > 100 µM (inactive) | GI50 (M14): > 100 µM (inactive) and 88.7 µM (inactive) | GI50 (OVCAR-8): > 100 µM (inactive) | GI50 (NCI-H226): > 100 µM (inactive) | GI50 (SF-539): > 100 µM (inactive) and 87.1 µM (inactive) | GI50 (SK-MEL-28): 79.4 µM (inactive) | GI50 (NCI-H23): > 100 µM (inactive) and 88.1 µM (inactive) | GI50 (HCT-15): 58.5 µM | GI50 (CAKI-1): > 100 µM (inactive) | GI50 (DU-145): > 100 µM (inactive) | GI50 (Hs-578T): > 100 µM (inactive) and 52.2 µM (inactive) | GI50 (NCI-H460): > 100 µM (inactive) and 57.7 µM (inactive) | GI50 (SNB-19): > 100 µM (inactive) | GI50 (EKVX): > 100 µM (inactive) | GI50 (SK-MEL-2): > 100 µM (inactive) | GI50 (ACHN): > 100 µM (inactive) and 80.7 µM (inactive) | GI50 (HOP-62): > 100 µM (inactive) and 61.4 µM (inactive) | GI50 (A498): > 100 µM (inactive) | GI50 (SK-OV-3): > 100 µM (inactive) | GI50 (SK-MEL-5): 57.3 µM (inactive) | GI50 (TK-10): > 100 µM (inactive)
